Test results as given in PMC8497620, “Structure and inhibition of Cryptococcus neoformans sterylglucosidase to develop antifungal agents” (Nature Communications, 2021).
“And” between values parts separate entries of the source, which are not always exact repeats. Identical values can stand only once. Like-named read-outs stand apart in the source and are kept apart here.

Experiments:
C. neoformans Sgl1 [1] = molecular target: T1, C. neoformans Sgl1 (Cryptococcus neoformans var. grubii, UniProt J9W473); assay: Sgl1 inhibition with res-glp substrate (HTS, single-compound dose-response); format: biochemical; settings: for % Sgl1 Inhibition / inhibition at 0.125 µM / inhibition at 0.5 µM / inhibition at 1 µM / inhibition at 2 µM / inhibition at 4 µM / inhibition at 8 µM / inhibition at […]: substrate resorufin 3β-D-glucopyranoside (100 µM); for inhibition at 0.125 µM: read-out: % Sgl1 Inhibition, 0.125 µM compound; for inhibition at 0.5 µM: read-out: % Sgl1 Inhibition, 0.5 µM compound; for inhibition at 1 µM: read-out: % Sgl1 Inhibition, 1 µM compound; for inhibition at 2 µM: read-out: % Sgl1 Inhibition, 2 µM compound; for inhibition at 4 µM: read-out: % Sgl1 Inhibition, 4 µM compound; for inhibition at 8 µM: read-out: % Sgl1 Inhibition, 8 µM compound; for inhibition at […]: read-out: % Sgl1 Inhibition, […] compound; for IC50: res-glp as substrate (100 µM), primary screen, read-out: IC50 against Sgl1
T1 sequence (J9W473 entry or part of it): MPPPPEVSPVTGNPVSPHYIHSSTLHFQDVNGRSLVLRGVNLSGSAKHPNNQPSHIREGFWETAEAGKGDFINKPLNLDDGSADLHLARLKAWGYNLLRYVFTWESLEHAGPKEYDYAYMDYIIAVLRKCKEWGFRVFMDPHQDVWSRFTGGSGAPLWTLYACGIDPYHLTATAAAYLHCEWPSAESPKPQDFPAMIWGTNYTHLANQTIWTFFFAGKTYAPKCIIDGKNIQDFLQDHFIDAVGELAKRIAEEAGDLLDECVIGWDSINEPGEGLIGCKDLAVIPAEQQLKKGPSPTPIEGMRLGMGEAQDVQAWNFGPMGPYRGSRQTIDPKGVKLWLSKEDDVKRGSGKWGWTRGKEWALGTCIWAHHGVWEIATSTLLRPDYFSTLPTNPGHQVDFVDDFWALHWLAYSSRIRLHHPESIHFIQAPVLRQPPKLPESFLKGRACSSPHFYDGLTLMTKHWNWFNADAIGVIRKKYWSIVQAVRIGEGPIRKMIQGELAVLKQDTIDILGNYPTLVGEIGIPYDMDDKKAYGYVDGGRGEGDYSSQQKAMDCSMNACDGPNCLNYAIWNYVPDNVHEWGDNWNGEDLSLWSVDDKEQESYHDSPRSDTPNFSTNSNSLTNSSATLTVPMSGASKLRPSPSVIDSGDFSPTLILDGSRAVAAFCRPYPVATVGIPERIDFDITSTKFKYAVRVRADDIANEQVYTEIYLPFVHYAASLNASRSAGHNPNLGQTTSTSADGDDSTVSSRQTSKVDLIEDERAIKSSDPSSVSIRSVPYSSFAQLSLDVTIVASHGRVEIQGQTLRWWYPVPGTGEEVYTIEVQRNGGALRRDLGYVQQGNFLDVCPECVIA
Procedure: Resorufin-3β-D-glucopyranoside (res-glp, Sigma-Aldrich) enzyme kinetic assays were performed according to methods described by Urban et al.[16] with modifications. Reaction buffer contained 50 mM citric acid, 176 mM K2HPO4, pH 6, 0.01% Tween-20, and 10 mM sodium taurocholate. The reactions were carried out in black 96-well plates using 20 ng of enzyme with 100 μM res-glp substrate. In all, 10 μL/well of res-glp substrate was added to each well and the reaction was initiated by adding 20 μL enzyme (20 ng). After incubation at 37 °C for 30–40 min, the fluorescence was read at an excitation of 570 (±10) nm and an emission of 610 (±10) nm on a VersaMax™ Microplate Reader from Molecular Devices. A standard curve was prepared with serial dilutions of the free fluorophore, resorufin, in the same volume of assay buffer.
A ChemBridge DIVERSet-CL library (San Diego, CA) containing 50,000 compounds was screened to identify small molecules that inhibit C. neoformans Sgl1. The library was prepared in a 96-well plate format containing a cocktail of 10 compounds per well at 1 mM each in 100% DMSO. The cocktail plates were first diluted to 100 μM each (1:10 dilution in Dulbecco’s phosphate-buffered saline, DPBS) resulting in 10% DMSO. In order to screen the compound cocktails at […] in 1% DMSO in a final reaction volume of 30 μL an aliquot of 3 μL was added to 17 μL of buffer containing 20 ng of enzyme and the reaction was started adding 10 μL of 100 μM res-glp. A negative control without enzyme and positive controls with and without DMSO were prepared. The plates were incubated at 37 °C for 40 min.
The Z′-factor was used for the assessment of the efficiency of the HTS assay for each individual plate. Values greater than 0.5 has been considered as an indicator of an excellent screening assay quality.

C. neoformans Sgl1 [2] = molecular target: T1, C. neoformans Sgl1; assay: Sgl1 inhibition with native substrate erg-glc; format: biochemical; settings: substrate ergosterol 3β-D-glucoside (1 mol%); for inhibition at 0.1 µM: read-out: % Sgl1 Inhibition, 0.1 µM compound; for inhibition at 1 µM: read-out: % Sgl1 Inhibition, 1 µM compound; for inhibition at 10 µM: read-out: % Sgl1 Inhibition, 10 µM compound; for inhibition at 100 µM: read-out: % Sgl1 Inhibition, 100 µM compound
Procedure: To validate the selective inhibition of Sgl1 by these compounds, we first tested their ability to inhibit hydrolysis of erg-glc in vitro.
A 50 μL volume of Cn Sgl1 wild type and 50 μL of mixed micelles of lipid and Triton X-100 in 50 mM Bis-Tris buffer with 150 mM NaCl, 5 mM βME, and 5 mM DTT were mixed and incubated at 37 °C for 10 min (erg-glc, Avanti Polar Lipids) and 1 h (C6-NBD-glcCer, Matreya). For the substrate erg-glc the amount of protein was 5 ng. 150 ng protein was used for reactions with C6-NBD-GlcCer. After the incubation period, each reaction was quenched with a 2:1 chloroform:methanol solution and the organic phase was collected and dried. Then, the lipid content was resuspended in 50 μL methanol and applied to HPLC (Agilent Technologies). Total erg-glc and ergosterol was detected using absorbance at 282 nm on a C-8 column with a flow rate of 0.5 ml/min in methanol/water 90:10 ratio buffered with 1 mM ammonium formate and 0.2% formic acid. A 85:15 ratio of the same eluent was used for C6-NBD-GlcCer and C6-NBD-ceramide monitoring the fluorescence at 470/530 nm excitation/emission. The total area of product was normalized by the total area of its respective substrate.

[3] = test system: human lung epithelial cancer cell line A549; settings: LD50 A549 / IC50 Sgl1
Procedure: The cells were maintained in Dulbecco’s modified eagle medium containing 10% fetal bovine serum and 1% penicillin–streptomycin. At passage 11, 10^5 cells were transferred into each well of 96-well plates and cultured for 18–24 h for the cells to adhere to the well surface. After, the medium was removed and a fresh medium containing the selected compounds at a concentration range of 1–512 μM were added to the wells. Controls with equivalent serial concentrations of DMSO were also evaluated and compared with a control without DMSO. The plate was incubated at 37 °C with 5% CO2. After 24 h, the supernatant was removed and 50 μL of 5 mg/mL 3-(4,5-dimethylthiazol-2-yl)-2,5-diphenyltetrazoliumbromide (MTT) solution in phosphate-buffered saline (PBS) was added to each well. The plates were incubated for an additional 4 h and the formazan crystals formed inside the cell was dissolved by adding 50 μL DMSO.

C. neoformans H99 = format: cell-based, Cryptococcus neoformans; settings: for Ergosterol 3β-D-glucoside accumulation (pmol/ Inorganic phosphate): 100 µM; for accumulation of erg-glc, fold less than the mutant Cn Δsgl1: 500 µM, 24 h; for erg-glc accumulation compared to untreated Cn H99 control: 24 h of treatment
Procedure: C. neoformans H99 was cultivated in yeast nitrogen base (YNB) broth for 24 h at 37 °C with shaking. […] […] After that, the resultant pellets were re-counted and used for lipid extraction. Thenceforth the total lipid was extracted as described previously by Singh et al.[55]. The dried samples were resuspended in chloroform/methanol 2:1 ratio for LC-MS analysis. A standard erg-glc from Avanti Polar Lipids was used as a control for the calibration curve. Data were normalized to the total inorganic phosphate content in the sample.

| Compound | % Sgl1 Inhibition (C. neoformans Sgl1 [1]; 0.125 µM compound) | % Sgl1 Inhibition (C. neoformans Sgl1 [1]; 0.5 µM compound) | % Sgl1 Inhibition (C. neoformans Sgl1 [1]; 1 µM compound) | % Sgl1 Inhibition (C. neoformans Sgl1 [1]; 2 µM compound) | % Sgl1 Inhibition (C. neoformans Sgl1 [1]; 4 µM compound) | % Sgl1 Inhibition (C. neoformans Sgl1 [1]; 8 µM compound) | inhibition at 0.125 µM (C. neoformans Sgl1 [1]) | inhibition at 0.5 µM (C. neoformans Sgl1 [1]) | inhibition at 1 µM (C. neoformans Sgl1 [1]) | inhibition at 2 µM (C. neoformans Sgl1 [1]) | inhibition at 4 µM (C. neoformans Sgl1 [1]) | inhibition at 8 µM (C. neoformans Sgl1 [1]) | inhibition at […] (C. neoformans Sgl1 [1]) | IC50 (C. neoformans Sgl1 [1]) | % Sgl1 Inhibition (C. neoformans Sgl1 [2]; 0.1 µM compound, 0.1 µM) | % Sgl1 Inhibition (C. neoformans Sgl1 [2]; 10 µM compound, 10 µM) | inhibition at 10 µM (C. neoformans Sgl1 [2]) | inhibition at 100 µM (C. neoformans Sgl1 [2]) | selectivity index (SI = LD50/IC50) [3] | accumulation of erg-glc, fold less than the mutant Cn Δsgl1 (C. neoformans H99) | also measured |
| --- | --- | --- | --- | --- | --- | --- | --- | --- | --- | --- | --- | --- | --- | --- | --- | --- | --- | --- | --- | --- | --- |
| CC(C)c1nc(N[C@@H]2C[C@@H](CO)N(C)C2)c2cnn(C)c2n1 [Hit 15] | 9.082% and 9.377% and 8.377% | 26.2814% and 26.2434% and 24.9511% | 39.5402% and 38.9055% and 37.6785% | 58.3844% and 57.9199% and 56.5095% | 75.564% and 74.8313% and 74.139% | 85.0771% and 84.7714% and 84.105% | 10.2% | 27.9% | 40.8% | 59.6% | 76.4% | 85.5% | 14.9% | ~1 µM and 1 µM | 19.6403% | 95.289% | 95.2% | 100% | > 500 | about 10 fold | % Sgl1 Inhibition (C. neoformans Sgl1 [2]; 1 µM compound, 1 µM): 70.0789%; inhibition at 0.1 µM (C. neoformans Sgl1 [2]): 26.7%; inhibition at 1 µM (C. neoformans Sgl1 [2]): 73.4%; selectivity index (SI = LD50/IC50) ([3]; listed as 15): > 512; Ergosterol 3β-D-glucoside accumulation (pmol/ Inorganic phosphate) (C. neoformans H99; 12h): 28100000 pmol/ Inorganic phosphate and 30500000 pmol/ Inorganic phosphate and 41500000 pmol/ Inorganic phosphate; Ergosterol 3β-D-glucoside accumulation (pmol/ Inorganic phosphate) (C. neoformans H99; 24h): 39400000 pmol/ Inorganic phosphate and 51600000 pmol/ Inorganic phosphate and 57400000 pmol/ Inorganic phosphate; Ergosterol 3β-D-glucoside accumulation (pmol/ Inorganic phosphate) (C. neoformans H99; 48h): 34400000 pmol/ Inorganic phosphate and 28300000 pmol/ Inorganic phosphate and 33700000 pmol/ Inorganic phosphate; erg-glc accumulation compared to untreated Cn H99 control (C. neoformans H99): significant differences, especially in concentrations higher than 10 µM |
| CN1C[C@@H](NC(=O)Cc2ccc3c(c2)NC(=O)CO3)C[C@@H]1CO [Hit 9] | 56.0175% and 54.9266% and 54.4568% | 83.3956% and 82.99% and 82.7099% | 91.001% and 90.7947% and 90.4821% | 95.2753% and 95.0933% and 95.0009% | 97.4258% and 97.3045% and 97.2378% | 98.6119% and 98.5721% and 98.4808% | 57.2% | 84% | 91.3% | 95.5% | 97.5% | 98.6% | 73.1% | ~1 µM | 58.2711% | 98.2082% | 97.6% | 98.1% | > 500 | about 10 fold | % Sgl1 Inhibition (C. neoformans Sgl1 [2]; 1 µM compound, 1 µM): 93.4351%; % Sgl1 Inhibition (C. neoformans Sgl1 [2]; 100 µM compound, 100 µM): 100%; inhibition at 0.1 µM (C. neoformans Sgl1 [2]): 52.2%; inhibition at 1 µM (C. neoformans Sgl1 [2]): 92.9% |
| COc1cccc(-c2ncc(CN3CCC(O)(CO)CC3)s2)c1 [Hit 1] |  |  |  |  |  |  | 0% | 14% | 45.8% | 56.1% | 74% | 90.2% | 0% | ~1 µM and 1 µM | 11.4412% and 5.382% | 46.34% | 40.5% | 84.8% | > 500 | about 10 fold | % Sgl1 Inhibition (C. neoformans Sgl1 [2]; 100 µM compound, 100 µM): 79.9522%; Ergosterol 3β-D-glucoside accumulation (pmol/ Inorganic phosphate) (C. neoformans H99; 12h): 22000000 pmol/ Inorganic phosphate and 25300000 pmol/ Inorganic phosphate and 19400000 pmol/ Inorganic phosphate; Ergosterol 3β-D-glucoside accumulation (pmol/ Inorganic phosphate) (C. neoformans H99; 24h): 17200000 pmol/ Inorganic phosphate and 20300000 pmol/ Inorganic phosphate and 31000000 pmol/ Inorganic phosphate; erg-glc accumulation compared to untreated Cn H99 control (C. neoformans H99): significant differences, especially in concentrations higher than 10 µM |
